Structures are written as SMILES.

The target of this assay is T1, human mAChR M4 (Homo sapiens, UniProt P08173).
T1 construct: expressed in transfected cells
T1 sequence (P08173 1-479): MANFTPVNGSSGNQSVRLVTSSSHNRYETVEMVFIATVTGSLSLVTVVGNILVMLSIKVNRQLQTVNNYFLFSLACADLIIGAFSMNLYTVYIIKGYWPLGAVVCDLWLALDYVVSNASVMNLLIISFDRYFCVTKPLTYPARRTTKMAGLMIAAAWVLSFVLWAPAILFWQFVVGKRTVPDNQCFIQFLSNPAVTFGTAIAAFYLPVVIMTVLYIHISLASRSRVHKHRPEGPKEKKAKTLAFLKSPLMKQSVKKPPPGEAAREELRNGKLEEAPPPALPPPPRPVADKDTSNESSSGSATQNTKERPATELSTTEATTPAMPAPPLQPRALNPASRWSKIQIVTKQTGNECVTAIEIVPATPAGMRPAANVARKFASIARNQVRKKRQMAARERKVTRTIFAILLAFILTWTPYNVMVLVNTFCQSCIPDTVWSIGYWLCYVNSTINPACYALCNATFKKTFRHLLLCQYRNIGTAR
The assay is described as follows: mAChR M4 cell-based functional assay (calcium mobilization, CHO-K1 hM4-Gqi5 cells). The conditions noted are these: for Emax at 30 µM: CHO-K1, % ACh maximum at 30 μM; for EC50: positive allosteric modulator activity, increase in the EC20 acetylcholine response, CHO-K1 hM4-Gqi5 cells, read-out: Human M4 EC50. How it is done:
Human and rat M4 cDNAs, along with the chimeric G protein Gqi5, were transfected into Chinese hamster ovary (CHO-K1) cells purchased from the American Type Culture Collection using Lipofectamine2000. hM4-Gqi5 cells were grown in Ham's F-12 medium containing 10% heat-inactivated fetal bovine serum (FBS), 20 mM HEPES, 50 μg/mL G418 sulfate, and 500 μg/mL Hygromycin B. rM4-Ggi5 cells were grown in DiVEM containing 10% heat-inactivated FBS, 20 mM THEPES, 400 μμg/mL G418 sulfate, and 500 μμg/mL Hygromycin B.
For high throughput measurement of agonist-evoked increases in intracellular calcium, CHO-K1 cells stably expressing muscarinic receptors were plated in growth medium lacking G418 and hygromycin at 15,000 cells/20 μL/well in Greiner 384-well black-walled, tissue culture (TC)-treated, clear-bottom plates (VWR). Cells were incubated overnight at 37° C. and 5% CO2. The next day, cells were washed using an ELX 405 (BioTek) with assay buffer; the final volume was then aspirated to 20 μL. Next, 20 μL of a […] of Fluo-4/acetoxymethyl ester (Invitrogen, Carlsbad, CA), prepared as a 2.3 mM stock in DMSO and mixed in a 1:1 ratio with 10% (w/v) Pluronic F-127 and diluted in assay buffer, was added to the wells and the cell plates were incubated for 50 min at 37° C. and 5% C02. Dye was removed by washing with the ELX 405 and the final volume was aspirated to 20 μL. Compound master plates were formatted in an 11 point concentration-response curve (CRC) format (1:3 dilutions) in 100% DMSO with a starting concentration of 10 mM using a BRAVO liquid handler (Agilent). Test compound CRCs were then transferred to daughter plates (240 nL) using the Echo acoustic plate reformatter (Labcyte, Sunnyvale, CA) and then diluted into assay buffer (40 μL) to a 2× stock using a Thermo Fisher Combi (Thermo Fisher Scientific, Waltham, MA).
Calcium flux was measured using the Functional Drug Screening System (FDSS) 6000 or 7000 (Hamamatsu Corporation, Tokyo, Japan) as an increase in the fluorescent static ratio. Compounds were applied to cells (20 μL, 2×) using the automated system of the FDSS at 2-4 seconds into the protocol and the data were collected at 1 Hz. At 144 seconds, 10 μL of an EC20 concentration of the muscarinic receptor agonist acetylcholine was added (5×), followed by the addition of 12 μL of an EC80 concentration of acetylcholine at the 230 second time point (5×). Agonist activity was analyzed as a concentration-dependent increase in calcium mobilization upon compound addition. Positive allosteric modulator activity was analyzed as a concentration-dependent increase in the EC20 acetylcholine response. Antagonist activity was analyzed as a concentration-dependent decrease in the EC80 acetylcholine response. Concentration-response curves were generated using a four-parameter logistical equation in XLFit curve fitting software (IDBS, Bridgewater, NJ) for Excel (Microsoft, Redmond, WA) or Prism (GraphPad Software, Inc., San Diego, CA).
Compounds were synthesized as described above. Activity (EC50 and Emax) was determined in the mAChR M4 cell-based functional assay as described above and the data are shown in Table 2. The compound number corresponds to the compound numbers used in Table 1.
For orientation: Calcium flux is commonly read through the fluorescence of an indicator in the cells.

One may read the Emax as the greatest response seen or fitted, relative to the assay's reference. What is called EC50 is the concentration giving half of the maximal effect. As to `Cc1cc(C#N)cnc1N1CCc2ncc(N3CCC(C(F)(F)F)n4nccc43)cc2C1` (stereo not shown) [Example 359, 5-methyl-6-(3-(7-(trifluoromethyl)-6,7-dihydropyrazolo[1,5-a]pyrimidin-4(5H)-yl)-7,8-dihydro-1,6-naphthyridin-6(5H)-yl)nicotinonitrile], the EC50 was determined as 472 nM. The Emax at 30 µM (human M4) is 120%.

As to `Cc1cc(Nc2cnc3c(c2)CN(c2nnc(C#N)cc2C)CC3)c(F)cn1` [Example 615, 6-(3-((5-fluoro-2-methylpyridin-4-yl)amino)-7,8-dihydro-1,6-naphthyridin-6(5H)-yl)-5-methylpyridazine-3-carbonitrile], the EC50 amounted to 11 nM. Moreover, where the note is “human M4”, the Emax at 30 µM amounted to 89%.

On to `Cc1c(C#N)nnc(N2CCc3ncc(Oc4ccc(F)cc4F)cc3C2)c1C` [Example 354, 6-(3-(2,4-difluorophenoxy)-7,8-dihydro-1,6-naphthyridin-6(5H)-yl)-4,5-dimethylpyridazine-3-carbonitrile], for which the EC50 is 271 nM. The Emax at 30 µM (human M4) amounted to 64%.

For `Cc1cc(F)c(F)cc1-c1cnc2c(c1)CN(c1ncc(C#N)cc1C)CC2` [Example 595, 6-(3-(4,5-difluoro-2-methylphenyl)-7,8-dihydro-1,6-naphthyridin-6(5H)-yl)-5-methylnicotinonitrile], the EC50 was determined as 4470 nM. Also, the Emax at 30 µM (human M4) is 38%.

Turning to `Cc1cc(C(=O)NCc2ccnn2C)cnc1N1CCc2ncccc2C1` [compound 63, 6-(7,8-dihydro-5H-1,6-naphthyridin-6-yl)-5-methyl-N-[(2-methylpyrazol-3-yl)methyl]pyridine-3-carboxamide], the EC50 was determined as 2710 nM. The Emax at 30 µM (human M4) was 68%.

For `Cc1cc2n(n1)CCCN2c1cnc2c(c1)CN(c1nnc(C#N)c(C)c1C)CC2` [Example 363, 4,5-dimethyl-6-(3-(2-methyl-6,7-dihydropyrazolo[1,5-a]pyrimidin-4(5H)-yl)-7,8-dihydro-1,6-naphthyridin-6(5H)-yl)pyridazine-3-carbonitrile], the concentration for a half-maximal effect (EC50) amounted to 148 nM. The maximal effect (Emax) at 30 µM (human M4) worked out at 90%.

Take `Cc1nc(C)c(C)c(N2CCc3ncc(-c4ccc(N5CCC(F)(F)C5)nc4)cc3C2)n1` [compound 228, 3-(6-(3,3-difluoropyrrolidin-1-yl)pyridin-3-yl)-6-(2,5,6-trimethylpyrimidin-4-yl)-5,6,7,8-tetrahydro-1,6-naphthyridine]: the EC50 was found to be 890 nM. Besides, for the setting “human M4”, the Emax at 30 µM worked out at 66%.

In the case of `Cc1cc(C#N)nnc1N1CCc2ncc(Oc3cccc(F)c3F)cc2C1` [Example 356, 6-(3-(2,3-difluorophenoxy)-7,8-dihydro-1,6-naphthyridin-6(5H)-yl)-5-methylpyridazine-3-carbonitrile], the EC50 was 276 nM. Also, under “human M4”, the maximum response (Emax) at 30 µM came out at 83%.

Turning to `COc1ccc(-c2cnc3c(c2)CN(c2nnc(C#N)c(C)c2C)CC3)cn1` [Example 299, 6-(3-(6-methoxypyridin-3-yl)-7,8-dihydro-1,6-naphthyridin-6(5H)-yl)-4,5-dimethylpyridazine-3-carbonitrile], the EC50 was found to be 178 nM. Also, for the setting “human M4”, the Emax at 30 µM came out at 64%.

Regarding `Cc1cc(C#N)cnc1N1Cc2cc(N3CCOCC3)cnc2C(C)C1` (single isomer, unassigned) [Example 408, 5-methyl-6-(8-methyl-3-morpholino-7,8-dihydro-1,6-naphthyridin-6(5H)-yl)nicotinonitrile], the EC50 worked out at 685 nM. Also, under “% ACh maximum at 30 μM, human M4”, the Emax is recorded as 65%.

For the compound `Cc1cc(C(=O)NCc2ccncc2)nnc1N1CCc2ncc(C(F)(F)F)cc2C1` [Example 493, 5-methyl-N-(pyridin-4-ylmethyl)-6-(3-(trifluoromethyl)-7,8-dihydro-1,6-naphthyridin-6(5H)-yl)pyridazine-3-carboxamide], the concentration giving a half-maximal response (EC50) worked out at 37 nM. Moreover, the Emax at 30 µM (human M4) came to 112%.

Take `COc1cnccc1CNC(=O)c1cc(C)c(N2CCc3ncc(C(F)(F)F)cc3C2)nn1` [Example 495, N-((3-methoxypyridin-4-yl)methyl)-5-methyl-6-(3-(trifluoromethyl)-7,8-dihydro-1,6-naphthyridin-6(5H)-yl)pyridazine-3-carboxamide]: the EC50 was 43 nM. Also, the Emax at 30 µM (human M4) was 102%.

On to `Cc1nc(N2CCOCC2)nc(N2CCc3ncc(Nc4ccnn4C)cc3C2)c1C` [compound 276, 6-(5,6-dimethyl-2-morpholinopyrimidin-4-yl)-N-(1-methyl-1H-pyrazol-5-yl)-5,6,7,8-tetrahydro-1,6-naphthyridin-3-amine], for which the half-maximal effective concentration (EC50) was 377 nM. For the setting “human M4”, the maximum response (Emax) at 30 µM is 100%.

For the compound `Cc1cc(C#N)cnc1N1CCc2ncc(-c3ccc(C4CC4)nc3)cc2C1` [compound 186, 6-[3-(6-cyclopropyl-3-pyridyl)-7,8-dihydro-5H-1,6-naphthyridin-6-yl]-5-methyl-pyridine-3-carbonitrile], the concentration for a half-maximal effect (EC50) worked out at 318 nM. For the same compound, under “human M4”, the Emax at 30 µM was 97%.

On to `Cc1cc(C(=O)N2CC(F)(F)C2)nnc1N1CCc2ncc(-c3ccnn3C)cc2C1` [Example 567, (3,3-difluoroazetidin-1-yl)(5-methyl-6-(3-(1-methyl-1H-pyrazol-5-yl)-7,8-dihydro-1,6-naphthyridin-6(5H)-yl)pyridazin-3-yl)methanone], for which the EC50 was determined as 70 nM. Moreover, where the note is “human M4”, the Emax at 30 µM worked out at 75%.

As for `Cc1cc(F)ncc1-c1cnc2c(c1)CN(c1nccc(C#N)c1C)CC2` [Example 437, 2-(3-(6-fluoro-4-methylpyridin-3-yl)-7,8-dihydro-1,6-naphthyridin-6(5H)-yl)-3-methylisonicotinonitrile], the EC50 was found to be 692 nM. Also, the Emax at 30 µM (human M4) worked out at 47%.

Regarding `Cc1cnccc1CNC(=O)c1cnc(N2CCc3ncc(-c4cn(C)nc4C)cc3C2)c(C)c1` [Example 451, 6-(3-(1,3-dimethyl-1/-pyrazol-4-yl)-7,8-dihydro-1,6-naphthyridin-6(5H)-yl)-5-methyl-N-((3-methylpyridin-4-yl)methyl)nicotinamide], the concentration giving a half-maximal response (EC50) amounted to 150 nM. Also, the Emax at 30 µM (human M4) is 92%.

Turning to `Cc1nc(NC2CCOC2)nc(N2CCc3ncc(Nc4ccnn4C)cc3C2)c1C` (stereo not shown) [compound 279, 6-(5,6-dimethyl-2-((tetrahydrofuran-3-yl)amino)pyrimidin-4-yl)-N-(1-methyl-1H-pyrazol-5-yl)-5,6,7,8-tetrahydro-1,6-naphthyridin-3-amine], the concentration giving a half-maximal response (EC50) was determined as 191 nM. Under “human M4”, the Emax at 30 µM was 103%.

As for `Cc1cc(C#N)cnc1N1CCc2ncc(CC(F)(F)F)cc2C1` [Example 423, 5-methyl-6-(3-(2,2,2-trifluoroethyl)-7,8-dihydro-1,6-naphthyridin-6(5H)-yl)nicotinonitrile], the EC50 was 229 nM. Also, the Emax at 30 µM (human M4) was 76%.

With `Cc1ccc(Nc2cnc3c(c2)CN(c2nnc(C#N)c(C)c2C)CC3)c(F)n1` [compound 79, 6-[3-[(2-fluoro-6-methyl-3-pyridyl)amino]-7,8-dihydro-5H-1,6-naphthyridin-6-yl]-4,5-dimethyl-pyridazine-3-carbonitrile], the EC50 came to 232 nM. Besides, the Emax at 30 µM (human M4) was 82%.

For the origin of these results see patent US20250230155A1 (Vanderbilt University, priority 2021, published 2025).
